# Source: US10213516B2, “Labelled carboxylic acids and their uses in molecular imaging” (Imperial Innovations Limited, priority 2013, dated 2019)
# “Also recorded” adds a separate entry of the source.
# Key:
# [1] = test system: EMT6 murine breast cancer cells; test: [18F]FDMP uptake in cells (gamma counting); format: cell-based
# Experimental: (§1) EMT6 murine breast cancer cells (LGC Standards) were grown in Waymouth's medium (Life Technologies), with U87 human glioma cells (LGC Standards) grown in DMEM medium (Life Technologies). DU145 (kind donation from Dr. Almut Schulze, CRUK London Research Institute) and BT474 (LGC Standards) were grown in RPMI (Life Technologies). All media were supplemented with 2.5 mL penicillin/streptomycin (10,000 IU·mL^−1/10,000 […]) and 2 mM L-glutamine (Life Technologies). Waymouth's medium contained 15% fetal calf serum (FCS), with 10% FCS added to DMEM and RPMI. All cells were propagated at 37° C. in a humidified atmosphere containing 5% CO2.
# EMT6 cells (2×10^5) were plated into 6-well plates overnight prior to analysis. On the day of the experiment fresh growth medium containing 0.74 MBq [^18F]FDMP were added to individual wells (1 mL/well). Cell uptake was measured over 60 min post radiotracer addition. Plates were placed on ice, washed 3 times with ice-cold PBS and lysed in RIPA buffer (Thermo Fisher Scientific Inc.; 1 mL, 10 min). Cell lysates were transferred to counting tubes and decay-corrected radioactivity was determined on a gamma counter (Cobra II Auto-Gamma counter, Packard Biosciences Co.). Aliquots were snap-frozen and used for protein determination following radioactive decay using a BCA 96-well plate assay (Thermo Fisher Scientific Inc.). In addition, 10 μL standards from a 0.74 MBq/mL stock solution were counted to quantitate % radiotracer uptake. For carnitine treatment, cells were incubated with 10 μM L-carnitine for the duration of the uptake time course.
# [2] = test system: EMT6 murine breast adenocarcinoma xenografts; test: Biodistribution time course in EMT6 tumour-bearing BALB/c mice; format: in vivo
# Experimental: (§2) All animal experiments were performed by licensed investigators in accordance with the United Kingdom Home Office Guidance on the Operation of the Animal (Scientific Procedures) Act 1986 and within the published guidelines for the welfare and use of animals in cancer research.^22 EMT6 tumour cells (2×10^6; 100 μL PBS) were injected subcutaneously on the back of female BALB/c mice (aged 6-8 weeks; Charles River) and grown to ˜150 mm^3. U87 tumours were grown following subcutaneous injection of 5×10^6 cells (100 μL PBS) on the back of female BALB/c nude mice (aged 6-8 weeks; Charles River), with BT474 tumours induced following injection of 5×10^6 cells in matrigel (BD Biosciences; 1:1 ratio PBS-to-matrigel; 100 μL total). Tumour dimensions were measured periodically using a caliper and tumour volumes were calculated by the equation: volume=(π/6)×a×b×c, where a, b, and c represent three orthogonal axes of the tumour. Inflammation was performed in an aseptic inflammation model as previously described.^23
# (§3) [^18F]FDMP (˜3.7 MBq) was injected via the tail vein of anaesthetized EMT6 tumour-bearing BALB/c mice. The mice were maintained under anesthesia and sacrificed by exsanguination via cardiac puncture at 2, 15, 30, 60, 120 or 180 min post radiotracer injection and tissues harvested. Biodistribution studies with BT474 and U87 tumour-bearing nude mice were performed 60 min post [^18F]FDMP injection. Tissue radioactivity was determined on a gamma counter (Cobra II Auto-Gamma counter, Packard Biosciences Co.) and decay corrected. 10 μL standards from a 1:100 dilution of the stock activity were also counted for data normalization. Plasma was obtained from terminal blood samples following centrifugation (14000 g, 5 min). Data were expressed as percent injected dose per gram of tissue (% ID/g).
# BT474 tumours = test: Biodistribution in BT474 tumour-bearing nude mice; format: in vivo, BALB/c nude mice; conditions: 60 min post injection
# Experimental: as §2, with “Inflammation was performed in an aseptic inflammation model as previously described.^23” left out
# [^18F]FDMP (˜3.7 MBq) was injected via the tail vein of anaesthetized EMT6 tumour-bearing BALB/c mice. […] Tissue radioactivity was determined on a gamma counter (Cobra II Auto-Gamma counter, Packard Biosciences Co.) and decay corrected. 10 μL standards from a 1:100 dilution of the stock activity were also counted for data normalization. […] Data were expressed as percent injected dose per gram of tissue (% ID/g).
# [3] = test system: U87 glioma human xenografts; test: Biodistribution in U87 human glioblastoma-bearing BALB/c nude mice; format: in vivo; conditions: for Tumour/brain ratio: U87 glioma, 60 min post injection; for Tumour uptake: U87 xenografts, 60 min post-radiotracer injection
# Experimental: as §2, §3
# [4] = In vivo radiotracer stability and metabolism (radio-HPLC of tissue extracts); parameters: species or system BALB/c non-tumour-bearing mice
# Experimental: Radiolabeled metabolites from plasma and tissues were quantified using an adapted method.^24 BALB/c non-tumour-bearing mice under general anesthesia (2.5% isofluorane; non-recovery anesthesia) were administered a bolus i.v. injection of [^18F]FDMP (˜7.4 MBq), and sacrificed by exsanguination via cardiac puncture 30 min post radiotracer injection. Heart, urine and liver samples were immediately snap-frozen in liquid nitrogen. Aliquots of heparinized blood were rapidly centrifuged (14000 g, 5 min, 4° C.) to obtain plasma. Plasma samples were subsequently snap-frozen in liquid nitrogen and kept on dry ice prior to analysis. For analysis, samples were thawed and kept at 4° C. immediately before use. To ice cold plasma and urine (200 μL) was added ice-cold methanol (600 μL) and the resulting suspension centrifuged (14000 g; 4° C.; 3 min). 300 μL of the resulting supernatant was added to 1 mL ice cold mobile phase. […] Samples were analyzed on an Agilent 1100 series HPLC system (Agilent Technologies, Santa Clara, Calif., USA), using an isocratic method of 10% MeOH in an ion pair buffer prepared as follows and a μBondapak C18 semi preparative HPLC column (Waters, Milford, Mass., USA; […]). […]
# EMT6 tumours = test: PET imaging of EMT6 tumour-bearing mice; format: in vivo; conditions: 60 min
# Experimental: All animal experiments were performed by licensed investigators in accordance with the United Kingdom Home Office Guidance on the Operation of the Animal (Scientific Procedures) Act 1986 and within the published guidelines for the welfare and use of animals in cancer research.^22 EMT6 tumour cells (2×10^6; 100 μL PBS) were injected subcutaneously on the back of female BALB/c mice (aged 6-8 weeks; Charles River) and grown to ˜150 mm^3. […] Tumour dimensions were measured periodically using a caliper and tumour volumes were calculated by the equation: volume=(π/6)×a×b×c, where a, b, and c represent three orthogonal axes of the tumour. […]
# [^18F]FDMP imaging scans were carried out on a GENISYS^4 small animal PET scanner (Sofie Biosciences), following a bolus i.v. injection of ˜1.85 MBq of the radiotracer into tumour-bearing mice. […] Tumour radioactivity were normalized to that of the whole body to obtain the normalized uptake value (NUV) to permit comparison of data obtained using the two scanners.
# Dynamic [^18F]FDMP imaging scans were carried outa dedicated small animal PET scanner (Siemens Inveon PET module, Siemens Medical Solutions USA, Inc., Malvern, Pa., USA) following a bolus i.v. injection of ˜3.7 MBq of the radiotracer into tumour-bearing mice. […] The count densities were averaged for all VOIs at each time point to obtain a time versus radioactivity curve (TAC). […]
# [5] = test system: DU145 prostate adenocarcinoma tumours; test: PET imaging of DU145 tumour-bearing mice; format: in vivo; conditions: for Tumour visibility by PET: DU145, 50-60 min static scans; for Tumour to whole body normalized uptake: 50-60 min static scans
# Experimental: [^18F]FDMP imaging scans were carried out on a GENISYS^4 small animal PET scanner (Sofie Biosciences), following a bolus i.v. injection of ˜1.85 MBq of the radiotracer into tumour-bearing mice. Static scans were acquired for 10 min and images were reconstructed using maximum-likelihood expectation maximization. In a different cohort of mice, dynamic PET imaging was performed on a Siemens Inveon PET module, (Siemens Medical Solutions USA) as described in supplementary materials. Dynamic PET imaging was performed for the [^18F]FDMP and [^18F]FDG comparison study in EMT6 tumour-bearing mice. Static scans on the GENISYS^4 were used for all other experiments. Siemens Inveon Research Workplace software was used for visualization of radiotracer uptake in the tumour and to define the three-dimensional volumes of interest (VOI). Tumour radioactivity were normalized to that of the whole body to obtain the normalized uptake value (NUV) to permit comparison of data obtained using the two scanners.
# [6] = test system: Turpentine-induced inflammatory tissue; test: Aseptic inflammation model biodistribution; format: in vivo; conditions: for Inflammation-to-muscle ratio: in vivo; for Accumulation in chemically-induced inflammatory tissues: turpentine-treated muscle
# Experimental: as §2, §3
# [7] = PET/CT imaging in healthy BALB/c mice; format: in vivo
# [8] = test system: orthotopic U87 brain tumour; test: PET imaging in orthotopic U87 brain tumour model; format: in vivo; conditions: 15-30 min and 45-60 min post radiotracer injection
# Experimental: FIG. 14. [^18F]FDMP and [^18F]FDG uptake in an orthotopic U87 brain tumour model. PET images were acquired 15-30 min and 45-60 min post radiotracer injection 6 weeks after intracranial injection of U87 glioma cells. White arrows indicate the tumour.
# [^18F]FDMP and [^18F]FDG uptake in an orthotopic U87 brain tumour model was analysed (FIG. 14). […] The background is very low, so good staining is achieved.
# tumour = conditions: cited from earlier work
# BT474 cells = test: Metabolism experiments in cells (LC-MS); format: cell-based, human
# Experimental: as §1
# BT474 cells were seeded in 12-well plates at 2×10^5 cells per well. For measurement of FDMP uptake, the media was replaced with media supplemented with 500 μM FDMP and incubated for the indicated times. All media samples were harvested at the same time and immediately diluted into ice-cold extraction solution of methanol, acetonitrile, and water (5:3:2) (All chemicals were purchased from Fisher Scientific and were LC-MS grade). Cell numbers were assumed to be identical. The amount of extraction solution added to each well was determined by cell counts obtained from a counting plate run in parallel (1 mL/2×10^6 cells). Extracts were vortexed for 10 min at 4° C. and then centrifuged at 16,500 g at 4° C. for 15 min. Supernatants were removed and analyzed by LC-MS (ZIC-pHelic HPLC columns and Exactive Plus Orbitrap MS (ThermoScientific). Data was analyzed using Xcalibur and LCQuan software (ThermoScientific). FDMP and FAC standards were run in isolation for quantification.
molecule,measurement,setting,value
"CC(C)(C[18F])C(=O)O [[^18F]FDMP, [^18F]3-fluoro-2,2-dimethylpropanoic acid]",Uptake into EMT6 tumour cells,[1]; 30 min of incubation,1.40±0.10 % radioactivity/mg protein
same,Uptake into EMT6 tumour cells,[1]; 60 min post radiotracer addition (plateau),1.47±0.04 % radioactivity/mg protein
same,Uptake increase compared to control cells,[1]; incubation with 10 μM L-carnitine,44%
same,Bone uptake,"[2]; 2, 15, 30 and 60 minutes after administration",low bone uptake
same,Tumour to blood ratio,"[2]; EMT6, after 60 minutes",up to 2.32
same,Tumour-associated radioactivity,"[2]; EMT6 tumour, 30 min post injection",9.3±1.0 % ID/g
same,Tumour-associated radioactivity,"[2]; EMT6 tumour, 120 min post radiotracer injection",9.8±2.0 % ID/g
same,Tumour-associated radioactivity,"[2]; EMT6 tumour, 180 min",6.3±0.7 % ID/g
same,Reduction of tumour-associated radioactivity,"[2]; EMT6 tumour, by 180 min",36%
same,Tumour radioactivity,"[2]; EMT6 tumours, 60 min post injection",9.1±0.5 % ID/g
same,Blood-brain barrier passage,[2]; gamma counting and dynamic PET,able to cross the blood-brain barrier; also recorded: passes the blood brain barrier
same,Tumour radioactivity,BT474 tumours,7.6±1.2 % ID/g
same,Tumour/brain ratio,[3],2.5
same,Tumour uptake,[3],9.35±1.0 % ID/g
same,Uptake in the normal brain,[3]; compared with [18F]FDG,significantly lower than [^18F]FDG
same,"Stability in plasma, liver and heart by radioHPLC",[4]; 30 min post injection,no degradation; also recorded: only peaks of the parent compound detectable
same,Parent peak fraction in urine,"[4]; urine, 30 min",61.8±6.6 % radioactivity
same,Tumour to whole body normalized uptake,EMT6 tumours,1.15±0.13 NUV
same,Tumour visibility by PET,[5],clearly discernable
same,Tumour uptake higher than [18F]FDG,[5]; DU145 prostate tumours,54%
same,Tumour to whole body normalized uptake,[5]; DU145 prostate tumours,0.73±0.07 NUV
same,Inflammation-to-muscle ratio,[6],2.36
same,Accumulation in chemically-induced inflammatory tissues,[6],6.53±1.13 % ID/g
same,Defluorination of the tracer (retention in bones),[7],no defluorination
same,Tumour staining in PET images,[8],good staining of the U87 tumour was visible
"CC([18F])C(=O)O (centres unmarked) [[^18F]FPA, [^18F]2-fluoropropionic acid]",Tumour-to-brain ratio,tumour; 60 minutes post-injection,1.27
same,Tumour to blood ratio,tumour; Table 1 in reference 28,1.03
"O=C(O)CF [[^19F]FAC, [^19F]fluroacetate, reference compound]",Intracellular metabolites observed by LC-MS,"BT474 cells; 500 μM in medium, BT474 cells",only the parent compound and [^19F]fluorocitrate were observed
same,"Effect on intracellular metabolite pools (citrate, cis-aconitate, alpha-ketoglutarate)","BT474 cells; BT474 cells, LC-MS","significant increase in citrate and cis-aconitate, together with significant decrease in alpha-ketoglutarate"
CC(C)(CF)C(=O)O [[^19F]FDMP],Uptake by BT474 cells detected by mass spectrometry,BT474 cells; 500 μM in medium,rapidly taken up
same,Intracellular metabolites observed by LC-MS,"BT474 cells; 500 μM in medium, BT474 cells",no other metabolites were observed
"[^18F]2-fluoro-2-deoxyglucose [[^18F]FDG, reference compound]",Tumour/brain ratio,[3],1.3
same,Tumour uptake,[3],11.0±1.1 % ID/g
same,Tumour to whole body normalized uptake,EMT6 tumours,1.02±0.16 NUV
same,Tumour visibility by PET,[5],not visible above background
same,Tumour to whole body normalized uptake,[5]; DU145 prostate tumours,0.47±0.09 NUV
same,Inflammation-to-muscle ratio,[6],2.66
same,Accumulation in chemically-induced inflammatory tissues,[6],5.86±0.68 % ID/g
